ChEMBL document CHEMBL4507261, “Data for DCP probe A-192621” (2021)

What was measured:
[1] = biological target: T1, 5-hydroxytryptamine receptor 3A (Homo sapiens) (UniProt P46098); assay: 5-HT3 (h) Eurofins-Cerep binding assay; parameters: ligand concentration 0.5 nM; conditions: filed as antagonist, Compound concentration 10.0 uM
T1 sequence (whole entry): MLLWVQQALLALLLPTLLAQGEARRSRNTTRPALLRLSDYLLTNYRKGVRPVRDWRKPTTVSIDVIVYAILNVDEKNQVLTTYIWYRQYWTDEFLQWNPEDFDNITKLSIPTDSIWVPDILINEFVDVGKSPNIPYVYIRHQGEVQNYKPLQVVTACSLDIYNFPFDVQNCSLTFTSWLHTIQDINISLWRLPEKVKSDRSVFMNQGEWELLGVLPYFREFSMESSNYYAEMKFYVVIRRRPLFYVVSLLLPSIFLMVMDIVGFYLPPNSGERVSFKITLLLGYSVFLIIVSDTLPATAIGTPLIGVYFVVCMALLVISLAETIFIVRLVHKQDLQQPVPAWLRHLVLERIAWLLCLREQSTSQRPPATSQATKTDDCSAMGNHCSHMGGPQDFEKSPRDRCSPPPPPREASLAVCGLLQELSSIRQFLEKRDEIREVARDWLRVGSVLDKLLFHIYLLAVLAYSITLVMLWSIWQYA

[2] = biological target: Ephrin type-B receptor 2 (Homo sapiens) (UniProt P29323); conditions: Compound concentration 1000.0 nM
[3] = biological target: Focal adhesion kinase 1 (Homo sapiens) (UniProt Q05397); conditions: Compound concentration 1000.0 nM
[4] = biological target: Adenosine receptor A3 (Homo sapiens) (UniProt P0DMS8); assay: A3 (h) Eurofins-Cerep binding assay; parameters: ligand concentration 0.15 nM; conditions: filed as agonist, Compound concentration 10.0 uM
[5] = biological target: Serine/threonine-protein kinase NLK (Homo sapiens) (UniProt Q9UBE8); conditions: Compound concentration 1000.0 nM
Serine/threonine-protein kinase NLK (Homo sapiens), sequence (Q9UBE8 whole entry): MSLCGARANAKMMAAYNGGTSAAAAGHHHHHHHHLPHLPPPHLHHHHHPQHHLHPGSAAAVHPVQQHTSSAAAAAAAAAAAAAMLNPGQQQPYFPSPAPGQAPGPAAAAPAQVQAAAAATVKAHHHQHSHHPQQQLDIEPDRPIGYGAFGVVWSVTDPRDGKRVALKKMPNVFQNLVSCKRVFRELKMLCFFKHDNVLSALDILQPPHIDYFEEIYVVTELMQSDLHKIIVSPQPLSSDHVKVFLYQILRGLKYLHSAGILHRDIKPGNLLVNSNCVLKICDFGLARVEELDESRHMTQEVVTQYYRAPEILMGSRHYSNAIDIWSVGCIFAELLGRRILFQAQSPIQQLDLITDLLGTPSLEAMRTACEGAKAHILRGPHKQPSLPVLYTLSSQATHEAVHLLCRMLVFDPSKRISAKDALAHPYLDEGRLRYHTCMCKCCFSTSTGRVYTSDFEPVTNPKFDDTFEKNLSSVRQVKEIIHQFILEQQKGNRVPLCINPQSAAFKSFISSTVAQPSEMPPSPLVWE

[6] = biological target: Peroxisome proliferator-activated receptor gamma (Homo sapiens) (UniProt P37231); assay: PPARgamma (h) Eurofins-Cerep binding assay; parameters: ligand concentration 5 nM; conditions: filed as agonist, Compound concentration 10.0 uM
[7] = tested on: Mast/stem cell growth factor receptor Kit (Homo sapiens), P10721 [L576P]; conditions: Compound concentration 1000.0 nM
Mast/stem cell growth factor receptor Kit (Homo sapiens), P10721 [L576P], sequence (P10721 whole entry L576P): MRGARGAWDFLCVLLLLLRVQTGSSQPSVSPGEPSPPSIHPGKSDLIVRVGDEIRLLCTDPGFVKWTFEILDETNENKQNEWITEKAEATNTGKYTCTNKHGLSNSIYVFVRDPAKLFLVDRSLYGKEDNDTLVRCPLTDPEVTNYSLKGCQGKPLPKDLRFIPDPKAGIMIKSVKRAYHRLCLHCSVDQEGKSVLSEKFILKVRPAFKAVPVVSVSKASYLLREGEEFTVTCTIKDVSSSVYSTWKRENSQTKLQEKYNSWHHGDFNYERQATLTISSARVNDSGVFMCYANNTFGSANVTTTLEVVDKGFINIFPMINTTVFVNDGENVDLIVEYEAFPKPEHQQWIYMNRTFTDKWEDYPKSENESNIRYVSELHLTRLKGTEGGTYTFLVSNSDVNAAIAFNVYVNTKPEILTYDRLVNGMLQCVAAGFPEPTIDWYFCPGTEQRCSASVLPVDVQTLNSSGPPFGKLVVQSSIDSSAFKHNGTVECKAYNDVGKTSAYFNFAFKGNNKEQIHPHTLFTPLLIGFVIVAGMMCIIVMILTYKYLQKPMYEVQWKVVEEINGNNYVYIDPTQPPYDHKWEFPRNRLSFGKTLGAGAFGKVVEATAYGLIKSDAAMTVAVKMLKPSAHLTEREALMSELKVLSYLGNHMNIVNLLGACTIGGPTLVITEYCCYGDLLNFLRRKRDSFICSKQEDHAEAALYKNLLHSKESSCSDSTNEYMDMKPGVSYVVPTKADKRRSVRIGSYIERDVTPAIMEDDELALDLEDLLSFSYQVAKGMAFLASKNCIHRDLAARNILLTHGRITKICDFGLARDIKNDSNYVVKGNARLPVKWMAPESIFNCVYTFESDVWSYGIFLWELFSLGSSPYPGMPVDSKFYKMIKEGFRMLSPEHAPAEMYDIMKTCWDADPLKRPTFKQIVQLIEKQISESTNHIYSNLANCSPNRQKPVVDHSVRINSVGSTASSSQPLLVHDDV

[8] = biological target: Serine/threonine-protein kinase Chk1 (Homo sapiens) (UniProt O14757); conditions: Compound concentration 1000.0 nM
[9] = tested on: Receptor-type tyrosine-protein kinase FLT3 (Homo sapiens), P36888 [UNDEFINED MUTATION]; conditions: Compound concentration 1000.0 nM
[10] = tested on: Tyrosine-protein kinase ABL1 (Homo sapiens), P00519 [H396P]; conditions: Compound concentration 1000.0 nM
[11] = biological target: Serine/threonine-protein kinase NIM1 (Homo sapiens) (UniProt Q8IY84); conditions: Compound concentration 1000.0 nM
[12] = biological target: Muscarinic acetylcholine receptor M1 (Homo sapiens) (UniProt P11229); assay: M1 (h) Eurofins-Cerep binding assay; parameters: ligand concentration 2 nM; conditions: filed as antagonist, Compound concentration 10.0 uM
[13] = tested on: eIF-2-alpha kinase GCN2 (Homo sapiens), Q9P2K8 [S808G]; conditions: Compound concentration 1000.0 nM
[14] = biological target: Interleukin-1 receptor-associated kinase 1 (Homo sapiens) (UniProt P51617); conditions: Compound concentration 1000.0 nM
[15] = biological target: Mitogen-activated protein kinase 10 (Homo sapiens) (UniProt P53779); conditions: Compound concentration 1000.0 nM
[16] = biological target: Macrophage-stimulating protein receptor (Homo sapiens) (UniProt Q04912); conditions: Compound concentration 1000.0 nM
[17] = biological target: Serine/threonine-protein kinase Nek5 (Homo sapiens) (UniProt Q6P3R8); conditions: Compound concentration 1000.0 nM
Serine/threonine-protein kinase Nek5 (Homo sapiens), sequence (Q6P3R8 whole entry): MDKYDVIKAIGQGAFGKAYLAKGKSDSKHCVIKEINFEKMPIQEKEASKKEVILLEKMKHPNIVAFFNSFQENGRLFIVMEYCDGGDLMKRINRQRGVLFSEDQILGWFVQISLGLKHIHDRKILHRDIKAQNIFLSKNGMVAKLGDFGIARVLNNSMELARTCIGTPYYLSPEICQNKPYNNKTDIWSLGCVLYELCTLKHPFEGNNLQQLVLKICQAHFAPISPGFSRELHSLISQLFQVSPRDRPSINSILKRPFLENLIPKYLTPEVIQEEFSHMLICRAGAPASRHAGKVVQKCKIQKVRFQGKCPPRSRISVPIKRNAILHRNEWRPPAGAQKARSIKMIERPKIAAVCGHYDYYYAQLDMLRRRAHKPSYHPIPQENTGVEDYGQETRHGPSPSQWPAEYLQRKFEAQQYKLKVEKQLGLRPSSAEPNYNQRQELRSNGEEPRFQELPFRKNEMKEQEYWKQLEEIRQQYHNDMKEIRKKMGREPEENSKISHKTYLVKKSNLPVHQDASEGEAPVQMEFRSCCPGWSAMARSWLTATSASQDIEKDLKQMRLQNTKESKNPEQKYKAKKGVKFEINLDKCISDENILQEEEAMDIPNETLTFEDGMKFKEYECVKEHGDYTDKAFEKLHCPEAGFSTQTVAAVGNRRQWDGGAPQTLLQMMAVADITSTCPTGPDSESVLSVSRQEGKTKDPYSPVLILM

[18] = biological target: Cyclin-dependent kinase-like 3 (Homo sapiens) (UniProt Q8IVW4); conditions: Compound concentration 1000.0 nM
[19] = biological target: Misshapen-like kinase 1 (Homo sapiens) (UniProt Q8N4C8); conditions: Compound concentration 1000.0 nM
[20] = biological target: Serine/threonine-protein kinase DCLK3 (Homo sapiens) (UniProt Q9C098); conditions: Compound concentration 1000.0 nM
Serine/threonine-protein kinase DCLK3 (Homo sapiens), sequence (Q9C098 whole entry): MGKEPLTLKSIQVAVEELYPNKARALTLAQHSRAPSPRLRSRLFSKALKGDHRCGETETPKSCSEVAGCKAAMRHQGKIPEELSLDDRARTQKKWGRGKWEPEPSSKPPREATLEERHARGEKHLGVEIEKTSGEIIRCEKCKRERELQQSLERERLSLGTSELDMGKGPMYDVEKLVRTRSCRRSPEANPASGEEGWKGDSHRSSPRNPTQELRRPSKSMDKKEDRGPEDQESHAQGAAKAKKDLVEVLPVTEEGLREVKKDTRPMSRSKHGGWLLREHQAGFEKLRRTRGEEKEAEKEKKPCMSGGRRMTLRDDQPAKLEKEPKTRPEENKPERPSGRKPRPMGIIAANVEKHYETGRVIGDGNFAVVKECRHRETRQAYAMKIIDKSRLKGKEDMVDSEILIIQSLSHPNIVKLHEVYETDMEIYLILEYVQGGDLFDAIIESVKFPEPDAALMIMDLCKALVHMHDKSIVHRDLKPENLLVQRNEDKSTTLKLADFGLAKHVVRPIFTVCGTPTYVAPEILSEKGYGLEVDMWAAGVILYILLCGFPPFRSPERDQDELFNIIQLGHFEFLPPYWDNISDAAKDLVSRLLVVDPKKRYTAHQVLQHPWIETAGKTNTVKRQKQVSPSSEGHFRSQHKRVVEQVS

[21] = biological target: 5-hydroxytryptamine receptor 2B (Homo sapiens) (UniProt P41595); assay: 5-HT2B (h) Eurofins-Cerep binding assay; parameters: ligand concentration 0.2 nM; conditions: filed as agonist, Compound concentration 10.0 uM
[22] = biological target: Beta-adrenergic receptor kinase 1 (Homo sapiens) (UniProt P25098); conditions: Compound concentration 1000.0 nM
Beta-adrenergic receptor kinase 1 (Homo sapiens), sequence (P25098 whole entry): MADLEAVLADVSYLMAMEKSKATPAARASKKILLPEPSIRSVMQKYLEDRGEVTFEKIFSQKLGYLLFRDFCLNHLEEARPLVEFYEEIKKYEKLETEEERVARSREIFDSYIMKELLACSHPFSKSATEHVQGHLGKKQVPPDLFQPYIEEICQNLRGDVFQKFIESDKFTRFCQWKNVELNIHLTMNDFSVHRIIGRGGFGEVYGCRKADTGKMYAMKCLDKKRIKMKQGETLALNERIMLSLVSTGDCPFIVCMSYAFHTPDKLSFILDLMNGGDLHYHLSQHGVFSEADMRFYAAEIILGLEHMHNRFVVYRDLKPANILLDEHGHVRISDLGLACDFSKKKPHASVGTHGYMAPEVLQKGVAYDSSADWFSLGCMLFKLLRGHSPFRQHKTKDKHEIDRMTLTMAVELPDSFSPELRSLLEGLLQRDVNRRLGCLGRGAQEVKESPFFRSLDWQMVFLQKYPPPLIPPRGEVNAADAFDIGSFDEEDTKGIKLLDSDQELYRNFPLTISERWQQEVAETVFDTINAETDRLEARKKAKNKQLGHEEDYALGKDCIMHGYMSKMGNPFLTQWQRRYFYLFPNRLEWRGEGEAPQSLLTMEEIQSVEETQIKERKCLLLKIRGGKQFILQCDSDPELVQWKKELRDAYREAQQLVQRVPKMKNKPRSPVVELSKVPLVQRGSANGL

[23] = tested on: Leucine-rich repeat serine/threonine-protein kinase 2 (Homo sapiens), Q5S007 [G2019S]; conditions: Compound concentration 1000.0 nM
[24] = biological target: Phosphatidylinositol 5-phosphate 4-kinase type-2 beta (Homo sapiens) (UniProt P78356); conditions: Compound concentration 1000.0 nM
Phosphatidylinositol 5-phosphate 4-kinase type-2 beta (Homo sapiens), sequence (P78356 whole entry): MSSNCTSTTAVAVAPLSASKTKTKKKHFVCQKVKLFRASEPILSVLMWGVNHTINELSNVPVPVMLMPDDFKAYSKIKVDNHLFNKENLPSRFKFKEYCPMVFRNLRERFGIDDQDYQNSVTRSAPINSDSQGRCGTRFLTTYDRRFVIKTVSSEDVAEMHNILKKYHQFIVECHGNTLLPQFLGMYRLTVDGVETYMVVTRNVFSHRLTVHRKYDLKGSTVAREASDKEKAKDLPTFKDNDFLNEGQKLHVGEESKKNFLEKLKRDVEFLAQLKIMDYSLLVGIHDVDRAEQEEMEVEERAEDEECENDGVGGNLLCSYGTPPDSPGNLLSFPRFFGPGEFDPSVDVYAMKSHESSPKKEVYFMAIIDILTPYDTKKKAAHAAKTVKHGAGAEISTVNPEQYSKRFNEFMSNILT

[25] = biological target: Serine/threonine-protein kinase PLK3 (Homo sapiens) (UniProt Q9H4B4); conditions: Compound concentration 1000.0 nM
Serine/threonine-protein kinase PLK3 (Homo sapiens), sequence (Q9H4B4 whole entry, looked up): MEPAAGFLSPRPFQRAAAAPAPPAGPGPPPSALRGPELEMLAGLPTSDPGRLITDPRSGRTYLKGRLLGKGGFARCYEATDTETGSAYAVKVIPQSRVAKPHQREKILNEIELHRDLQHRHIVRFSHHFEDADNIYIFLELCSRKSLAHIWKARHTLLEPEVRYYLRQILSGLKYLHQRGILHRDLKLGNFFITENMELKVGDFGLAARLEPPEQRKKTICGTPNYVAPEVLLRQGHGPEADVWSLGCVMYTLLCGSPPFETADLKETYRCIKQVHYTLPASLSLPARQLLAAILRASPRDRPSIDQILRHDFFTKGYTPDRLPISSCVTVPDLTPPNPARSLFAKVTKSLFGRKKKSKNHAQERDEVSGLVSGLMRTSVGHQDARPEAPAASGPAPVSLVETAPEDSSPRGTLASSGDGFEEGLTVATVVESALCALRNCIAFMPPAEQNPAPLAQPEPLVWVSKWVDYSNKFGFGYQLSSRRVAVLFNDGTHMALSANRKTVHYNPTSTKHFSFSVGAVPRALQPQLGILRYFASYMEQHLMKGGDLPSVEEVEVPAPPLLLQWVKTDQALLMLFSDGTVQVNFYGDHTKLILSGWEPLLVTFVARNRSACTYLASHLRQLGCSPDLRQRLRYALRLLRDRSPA

[26] = biological target: Testis-specific serine/threonine-protein kinase 1 (Homo sapiens) (UniProt Q9BXA7); conditions: Compound concentration 1000.0 nM
[27] = biological target: Activated CDC42 kinase 1 (Homo sapiens) (UniProt Q07912); conditions: Compound concentration 1000.0 nM
[28] = biological target: Mast/stem cell growth factor receptor Kit (Homo sapiens) (UniProt P10721); conditions: Compound concentration 1000.0 nM
Mast/stem cell growth factor receptor Kit (Homo sapiens), sequence (P10721 whole entry): as the sequence (P10721 whole entry L576P) above, with P576L counted along it

[29] = biological target: GABA-A receptor; anion channel (Rattus norvegicus) (UniProt O09028+P15431+P18506+P18508+P19969+P20236+P23574+P23576+P28471+P28473+P30191+P62813+P63079+P63138+Q91ZM7+Q9ES14); assay: Cl- channel (GABA-gated) Eurofins-Cerep binding assay; format: protein-complex assay; parameters: ligand concentration 3 nM; conditions: filed as antagonist, Compound concentration 10.0 uM
[30] = biological target: cGMP-inhibited 3',5'-cyclic phosphodiesterase 3A (Homo sapiens) (UniProt Q14432); assay: PDE3A (h) Eurofins-Cerep enzyme and uptake assay; conditions: Compound concentration 10.0 uM
[31] = biological target: GABA-A receptor; alpha-1/beta-2/gamma-2 (Homo sapiens) (UniProt P14867+P47870+P18507); assay: GABAA1 (h) (alpha1,beta2,gamma2) Eurofins-Cerep binding assay; format: protein-complex assay; parameters: ligand concentration 15 nM; conditions: filed as agonist, Compound concentration 10.0 uM
[32] = biological target: Angiotensin-converting enzyme (Homo sapiens) (UniProt P12821); assay: ACE (h) Eurofins-Cerep enzyme and uptake assay; conditions: Compound concentration 10.0 uM
[33] = biological target: Ribosomal protein S6 kinase alpha-5 (Homo sapiens) (UniProt O75582); conditions: Compound concentration 1000.0 nM
[34] = biological target: Sigma non-opioid intracellular receptor 1 (Homo sapiens) (UniProt Q99720); assay: sigma (non-selective) (h) Eurofins-Cerep binding assay; parameters: ligand concentration 10 nM; conditions: filed as agonist, Compound concentration 10.0 uM
Sigma non-opioid intracellular receptor 1 (Homo sapiens), sequence (Q99720 whole entry): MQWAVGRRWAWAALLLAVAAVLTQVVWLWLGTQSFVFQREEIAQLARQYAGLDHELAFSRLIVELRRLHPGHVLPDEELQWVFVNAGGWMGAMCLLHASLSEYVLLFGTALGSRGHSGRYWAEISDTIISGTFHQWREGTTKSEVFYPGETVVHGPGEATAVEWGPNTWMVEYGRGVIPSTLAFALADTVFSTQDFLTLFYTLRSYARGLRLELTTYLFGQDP

[35] = biological target: RAC-gamma serine/threonine-protein kinase (Homo sapiens) (UniProt Q9Y243); conditions: Compound concentration 1000.0 nM
[36] = biological target: Phosphatidylinositol 4-phosphate 3-kinase C2 domain-containing subunit beta (Homo sapiens) (UniProt O00750); conditions: Compound concentration 1000.0 nM

Row | Compound | % Inhibition of Control Specific Binding (Mean n=2) [1] | residual activity [2] | residual activity [3] | % Inhibition of Control Specific Binding (Mean n=2) [4] | residual activity [5] | % Inhibition of Control Specific Binding (Mean n=2) [6] | residual activity [7] | residual activity [8] | residual activity [9] | residual activity [10] | residual activity [11] | % Inhibition of Control Specific Binding (Mean n=2) [12] | residual activity [13] | residual activity [14] | residual activity [15] | residual activity [16] | residual activity [17] | residual activity [18] | residual activity [19] | residual activity [20] | also measured
1 | CCCOc1ccc([C@H]2[C@H](C(=O)O)[C@@H](c3ccc4c(c3)OCO4)CN2CC(=O)Nc2c(CC)cccc2CC)cc1 [A-192621] | -10.7% | 100% | 86% | 47.4% | 100% | 40.3% | 90% | 98% | 13% | 63% | 78% | -11.2% | 90% | 67% | 80% | 86% | 29% | 92% | 68% | 100% | % Inhibition of Control Specific Binding (Mean n=2) [21]: -1.9%; residual activity [22]: 51%; residual activity [23]: 91%; residual activity [24]: 97%; residual activity [25]: 83%; residual activity [26]: 92%; residual activity [27]: 100%; residual activity [28]: 92%; % Inhibition of Control Specific Binding (Mean n=2) [29]: 77.4%; % Inhibition of Control Values (Mean n=2) [30]: 29%; % Inhibition of Control Specific Binding (Mean n=2) [31]: -34%; % Inhibition of Control Values (Mean n=2) [32]: -12.6%; residual activity [33]: 98%; % Inhibition of Control Specific Binding (Mean n=2) [34]: 39.3%; residual activity [35]: 82%; residual activity [36]: 92%
2 | CCCOc1ccc([C@@H]2[C@@H](C(=O)O)[C@H](c3ccc4c(c3)OCO4)CN2CC(=O)Nc2c(CC)cccc2CC)cc1 [A-1806262] | -7.1% | 100% | 88% | 37.6% | 100% | 67% | 100% | 86% | 63% | 89% | 81% | 3.7% | 100% | 96% | 95% | 91% | 55% | 95% | 78% | 100% | % Inhibition of Control Specific Binding (Mean n=2) [21]: -16.5%; residual activity [22]: 89%; residual activity [23]: 84%; residual activity [24]: 80%; residual activity [25]: 88%; residual activity [26]: 100%; residual activity [27]: 90%; residual activity [28]: 82%; % Inhibition of Control Specific Binding (Mean n=2) [29]: 60.8%; % Inhibition of Control Values (Mean n=2) [30]: 34.5%; % Inhibition of Control Specific Binding (Mean n=2) [31]: -33.6%; % Inhibition of Control Values (Mean n=2) [32]: -13.7%; residual activity [33]: 99%; % Inhibition of Control Specific Binding (Mean n=2) [34]: -9.7%; residual activity [35]: 100%; residual activity [36]: 94%
